Assay [1] deals with Candida albicans (ATCC 10231). Put plainly: Anti-Candida albicans activity, broth microdilution MIC. It is filed as cell-based. The settings on record: for MIC: Candida albicans, ATCC10231, 24 h of incubation; for activity against Candida albicans: after 24 h. On the procedure:
The dermatophytes used in this study were Epidermophyton floccosum var. floccosum (Netherlands) CBS 358.93 strain, Trichophyton tonsurans (Netherlands) CBS 483.76 strain, Trichophyton mentagrophytes (Netherlands) CBS 160.66 strain, Microsporum canis (Iran) CBS 131,110 strain, and Microsporum gypseum (Iran) CBS 130,948 strain. All dermatophytes were maintained at 4 °C as agar slants on SDA. Candida albicans (ATCC 10231) was maintained at 4 °C on SDA plate.
The suspension of Candida albicans consists of the dispersion of an aliquot in 5 mL of sterilized water. The compounds and fluconazole, used as a positive control, were solubilized in DMSO (12.80 mg/mL) as stock solutions. Minimum inhibitory concentration (MIC) was performed by the broth microdilution method according to the approved standard M27-A3, 2008 [NCCLS] of the Clinical and Laboratory Standards Institute/National Committee for Clinical Laboratory Standards (CLSI/NCCLS), as described previously.
Candida is a strain of fungi known to transmit infections to different parts of the human body, including the skin [43], which is why the synthesized compounds have also been tested against Candida Albicans (ATCC 10231). For each of them the minimum inhibitory concentration (MIC) was determined by the broth microdilution method using RPMI 1640 + MOPS as culture medium. […] Fluconazole was used as a positive control drug. […] Similarly to the results observed on dermatophytes, therefore, the unsubstituted compounds in position 6 of benzimidazole gave activity on yeasts, except for compound 8a.
(In general: In broth dilution the organism is exposed to a series of concentrations in liquid medium.)

For a further assay, the system named is dermatophytes. More on the design: method as in PMID 32967192. The settings on record: cited from earlier work.

Molecules are shown by their SMILES. Values after ≈ are worked out from the molar mass of the structure shown.

Data on 3 molecules can be found in article PMC8869097, “Benzothiazole Derivatives as Multifunctional Antioxidant Agents for Skin Damage: Structure–Activity Relationship of a Scaffold Bearing a Five-Membered Ring System” (Antioxidants, 2022).

Broadly, the MIC is the smallest concentration in the dilution series that meets the test's criterion for growth inhibition. Lower therefore signals a more susceptible organism.

In the case of `c1coc(-c2nc3ccccc3s2)c1` [Compound 9a, 2-(Furan-2-Yl)benzothiazole], in assay [1], inhibition of growth (MIC) required 32 µg/mL (≈ 159 µM) and the “activity against Candida albicans” value is “showed activity against Candida albicans after 24 h”.
On the same counts, the results for `c1csc(-c2nc3ccccc3s2)c1` [Compound 10a, 2-(Thiophen-2-Yl)benzothiazole] are 64 µg/mL (≈ 294 µM) and “showed activity against Candida albicans after 24 h”.
In the case of `c1c[nH]c(-c2nc3ccccc3[nH]2)c1` [Lead 10, reference compound], the “IC50 towards the tested dermatophytes” value in the assay with dermatophytes was “lower than 2 µg/mL”.
